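These data come from cells grown in 96-well plates and exposed to compound for 48 hours at five concentrations. GI50 marks 50% less growth. TGI: total growth inhibition.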 Where a SMILES comes first, the peptide text is derived from it. The star is where a group is joined. Fmoc = O=C(OCC1c2ccccc2-c2ccccc21)*; Boc = CC(C)(C)OC(=O)*

Test systems include A549 NSCLC; SNB-78 CNS; KM20L2 colon; SK-MEL-28 melanoma; MOLT-4 leukemia; LXFL 529 NSCLC; M19-MEL melanoma; SK-MEL-5 melanoma; HS 578T breast; DMS 114 small cell lung; MDA-MB-435; MDA-MB-231 breast; XF 498 CNS.
Assay in all cases: growth of human tumour cells (NCI), 48 h

`O=C(Nc1cccc2c1[nH]c1c(-c3ccccc3)nccc12)c1ccccc1[N+](=O)[O-]`: the TGI in the experiment with A549 NSCLC, with SNB-78 CNS, in the experiment with KM20L2 colon, in the experiment on SK-MEL-28 melanoma, in the experiment on MOLT-4 leukemia and in the experiment on LXFL 529 NSCLC was over 100 µM throughout.
In the case of `COc1cccc(NC(=O)C(=O)C(C(=O)c2ccccc2F)C2OC(=O)c3ccccc32)c1` (stereo unspecified), the TGI in the experiment on A549 NSCLC, in the experiment on SNB-78 CNS, in the experiment on KM20L2 colon, in the experiment on SK-MEL-28 melanoma, in the experiment on M19-MEL melanoma and with MOLT-4 leukemia was over 100 µM throughout. Also, the TGI in the experiment on LXFL 529 NSCLC and in the experiment on SK-MEL-5 melanoma was over 100 µM throughout.
As to `CCN(CC)CCNc1ccc2nnn3c4ccc(O)cc4c(=O)c1c23`, the TGI in the experiment on HS 578T breast is 26.6 µM; with A549 NSCLC, 13.3 µM; with DMS 114 small cell lung, 22.1 µM; in the experiment with MDA-MB-435, 17.4 µM; in the experiment on SNB-78 CNS, 21.1 µM; in the experiment with KM20L2 colon it was 17.6 µM. In addition, the TGI in the experiment on SK-MEL-28 melanoma is 24.2 µM; in the experiment on MOLT-4 leukemia it was 4.76 µM; in the experiment on LXFL 529 NSCLC, 20.3 µM; in the experiment on MDA-MB-231 breast, 18.2 µM; in the experiment with SK-MEL-5 melanoma it was 15.7 µM.
`O=C1C(Cl)N(c2cccc([N+](=O)[O-])c2)C1c1c[nH]c2ccccc12` (stereo unspecified): the TGI is 56.3 µM with A549 NSCLC; 47 µM in the experiment with DMS 114 small cell lung; 53.6 µM in the experiment on KM20L2 colon; 73.5 µM in the experiment on SK-MEL-28 melanoma; 42.5 µM with M19-MEL melanoma; over 100 µM with MOLT-4 leukemia. In addition, the values for the TGI in the experiment with LXFL 529 NSCLC and in the experiment on SK-MEL-5 melanoma were 20.4 µM and 34.5 µM, respectively.
In the case of `CSc1nc2c(ncn2C2OCC(O)C(O)C2O)c(=O)n1C` (stereo unspecified), the TGI in the experiment with A549 NSCLC, with DMS 114 small cell lung, in the experiment on XF 498 CNS, in the experiment on SNB-78 CNS, in the experiment with KM20L2 colon and in the experiment with SK-MEL-28 melanoma was over 100 µM in each case. Further, the TGI in the experiment with M19-MEL melanoma, in the experiment on MOLT-4 leukemia and in the experiment on SK-MEL-5 melanoma was over 100 µM each time.
On to `CC(C)(C)OC(=O)NCCCCC(NC(=O)C(Cc1c[nH]c2ccccc12)NC(=O)OCC1c2ccccc2-c2ccccc21)C(=O)N1CCCC1C(=O)NCC(N)=O` (stereo unspecified) (Fmoc-WK(Boc)PG-NH2; configuration not given here), for which the TGI with HS 578T breast, with A549 NSCLC, in the experiment on MDA-MB-435, with SK-MEL-28 melanoma, in the experiment on MOLT-4 leukemia and in the experiment on MDA-MB-231 breast was over 100 µM each time. Besides, the TGI with SK-MEL-5 melanoma was over 100 µM.
Turning to `COC(=O)C(C/C=C(\C)c1ccc(Cl)cc1)C(C)=O` (stereo unspecified), the TGI was over 90.6 µM in the experiment with A549 NSCLC; over 73.8 µM with DMS 114 small cell lung; over 100 µM with XF 498 CNS; over 100 µM with SNB-78 CNS; over 100 µM in the experiment on KM20L2 colon; over 100 µM in the experiment with SK-MEL-28 melanoma. In addition, the TGI is over 92.5 µM in the experiment with M19-MEL melanoma, 41.2 µM in the experiment on MOLT-4 leukemia and 51.7 µM with SK-MEL-5 melanoma.
For the compound `C[C@@H](NC(=O)c1ccc(CNC(=O)/C=C/c2cccc(Oc3ccccc3)c2)cc1)c1ccccc1`, the TGI with HS 578T breast is 33.4 µM; in the experiment with A549 NSCLC it was over 57.8 µM; with MDA-MB-435 it was over 100 µM; in the experiment on SK-MEL-28 melanoma, over 100 µM; in the experiment on MOLT-4 leukemia, over 100 µM; with MDA-MB-231 breast it was over 100 µM. Moreover, in the experiment with SK-MEL-5 melanoma, the TGI was over 100 µM.
Take `COC(=O)C1=C(C)C=C(N2CCOCC2)C(C(=O)OC)C1c1ccccc1` (stereo unspecified): the TGI with HS 578T breast, in the experiment with A549 NSCLC, in the experiment on MDA-MB-435, in the experiment on SK-MEL-28 melanoma, in the experiment on MOLT-4 leukemia and in the experiment on MDA-MB-231 breast was over 10 µM throughout. In addition, the TGI with SK-MEL-5 melanoma was over 10 µM.
On to `CC(C)Cc1cc2c(cc1O)CCC1C2CC[C@@]2(C)C1CC[C@@H]2O` (stereo partly specified), for which the TGI was determined as 23.7 µM in the experiment on HS 578T breast; 21.4 µM with A549 NSCLC; 27.8 µM in the experiment with MDA-MB-435; 28.8 µM in the experiment on SK-MEL-28 melanoma; 17.2 µM with MOLT-4 leukemia; 20 µM with MDA-MB-231 breast. Further, in the experiment with SK-MEL-5 melanoma, the TGI was found to be 20.3 µM.
In the case of `CN1CCN(Cc2ccc(NC(=O)c3cccc(C#Cc4cnc(N)c5ncccc45)c3F)cc2C(F)(F)F)CC1`, the GI50 was 1.29 µM with HS 578T breast; 0.747 µM in the experiment on A549 NSCLC; 0.789 µM with MDA-MB-435; 0.848 µM in the experiment on SK-MEL-28 melanoma; 0.77 µM in the experiment with MOLT-4 leukemia; 0.773 µM in the experiment with MDA-MB-231 breast. In addition, the GI50 with SK-MEL-5 melanoma is 4.3 µM. For the same compound, the TGI with HS 578T breast stood at 8.66 µM; in the experiment with A549 NSCLC, 1.58 µM; in the experiment with MDA-MB-435, 1.53 µM; with SK-MEL-28 melanoma, 1.59 µM; in the experiment with MOLT-4 leukemia, 3.06 µM; with MDA-MB-231 breast, 1.75 µM. In the experiment on SK-MEL-5 melanoma, this compound yielded a TGI of 12.1 µM.
For `O=C(O)CC(Sc1ccccc1)c1ccccc1` (stereo unspecified), the TGI with HS 578T breast, in the experiment with A549 NSCLC, with MDA-MB-435, with SK-MEL-28 melanoma, in the experiment on MOLT-4 leukemia and in the experiment with MDA-MB-231 breast was over 100 µM in each case. The compound also showed a TGI in the experiment with SK-MEL-5 melanoma of over 100 µM.
With `CCOC(=O)C(C(=S)SC)c1nn2c(=O)cc(C)nc2s1` (stereo unspecified), the TGI came to 44.9 µM in the experiment with HS 578T breast; 37 µM with A549 NSCLC; 32.4 µM in the experiment with MDA-MB-435; 34.8 µM with SK-MEL-28 melanoma; 44.2 µM in the experiment with MOLT-4 leukemia; 37.9 µM with MDA-MB-231 breast. The compound also showed a TGI with SK-MEL-5 melanoma of 35.1 µM.
Turning to `CCOC(=O)c1c2c(c(O)c3ccccc3c(O)n(Cc3ccccc3)c1C)C(=O)C=CC2=O`, the TGI in the experiment with HS 578T breast, in the experiment on A549 NSCLC, in the experiment with MDA-MB-435, in the experiment with SK-MEL-28 melanoma, in the experiment with MOLT-4 leukemia and in the experiment on MDA-MB-231 breast was over 100 µM each time. In the experiment with SK-MEL-5 melanoma, this compound had a TGI of over 100 µM.
Regarding `Cc1ccc2nc(C=Nc3ccc(Cl)cc3)cc(C)c2c1`, the TGI in the experiment with HS 578T breast was over 69.4 µM; in the experiment on A549 NSCLC, over 100 µM; in the experiment with MDA-MB-435 it was 24.1 µM; in the experiment on SK-MEL-28 melanoma, 36.4 µM; with MOLT-4 leukemia, over 53.6 µM; in the experiment with MDA-MB-231 breast, 27.3 µM. This compound had a TGI in the experiment on SK-MEL-5 melanoma of 25.2 µM.

Values taken from PubChem BioAssay (NCI).
